Test systems include NCI-H460 lung; UACC-62 melanoma; HS 578T breast; EKVX NSCLC; DU-145 prostate; A549 NSCLC; HCC-2998 colon; T-47D breast.
Holding throughout (assay): growth of human tumour cells (NCI), 48 h

Molecules are shown by their SMILES.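 Results reflect a 48-hour exposure of cells in 96-well plates to compound at five concentrations. Here, GI50 denotes the concentration required for 50% inhibition of growth. The concentration for full growth arrest is given as TGI.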

In the case of `N#CC1C(=N)Cc2ccccc2-c2ccccc21` (centres undefined), the GI50 is 3.92 µM in the assay with NCI-H460 lung; 3.83 µM with UACC-62 melanoma; 5.38 µM in the assay with HS 578T breast; 4.37 µM with EKVX NSCLC; 6.92 µM with DU-145 prostate; 4.58 µM in the assay with A549 NSCLC. The values for the GI50 in the assay with HCC-2998 colon and in the assay with T-47D breast were 9.96 µM and 5.61 µM, respectively. The TGI with NCI-H460 lung is 18.3 µM; in the assay on UACC-62 melanoma, 17.1 µM; in the assay with HS 578T breast, 65.3 µM; in the assay on EKVX NSCLC, > 100 µM; in the assay on DU-145 prostate, 49.7 µM; in the assay on A549 NSCLC it was > 100 µM. Besides, the TGI with HCC-2998 colon is 26 µM; in the assay on T-47D breast it was 73.3 µM.

For `N#C/C(=C/C=C(\Cl)c1ccc(Cl)cc1)C(N)=O`, the GI50 is 4.65 µM with NCI-H460 lung; 5.87 µM in the assay with UACC-62 melanoma; 3.07 µM in the assay with HS 578T breast; 7.74 µM with EKVX NSCLC; 3.31 µM with DU-145 prostate; 7.54 µM with A549 NSCLC. Moreover, the figures for the GI50 in the assay with HCC-2998 colon and in the assay with T-47D breast were 2.66 µM and 3.26 µM, respectively. For the same compound, the TGI in the assay on NCI-H460 lung was > 100 µM; in the assay on UACC-62 melanoma it was 20.6 µM; with HS 578T breast it was 9.91 µM; in the assay with EKVX NSCLC, 17.4 µM; in the assay with DU-145 prostate it was 12.5 µM; in the assay on A549 NSCLC, 15.4 µM. The TGI was 7.71 µM in the assay on HCC-2998 colon and 26.4 µM with T-47D breast.

With `O=C(Nc1cnn2ccc(N3CCC[C@@H]3c3cc(F)ccc3F)nc12)N1CC[C@H](O)C1`, the GI50 with NCI-H460 lung, in the assay on UACC-62 melanoma, in the assay with HS 578T breast, in the assay with EKVX NSCLC, with DU-145 prostate and in the assay on A549 NSCLC was > 100 µM throughout. The GI50 with HCC-2998 colon and with T-47D breast was > 100 µM throughout. Besides, the TGI in the assay on NCI-H460 lung, in the assay with UACC-62 melanoma, in the assay on HS 578T breast, in the assay with EKVX NSCLC, with DU-145 prostate and in the assay with A549 NSCLC was > 100 µM each time. Besides, the TGI in the assay with HCC-2998 colon and with T-47D breast was > 100 µM in each case.

As to `COc1cc2c3c(n(CCCN)c(=O)c2cc1OC)-c1ccc(F)cc1C3=O`, the GI50 in the assay on NCI-H460 lung is 0.369 µM; with UACC-62 melanoma, 0.925 µM; in the assay on HS 578T breast it was 6.49 µM; in the assay on EKVX NSCLC it was 11.6 µM; in the assay on DU-145 prostate, 0.788 µM; in the assay on A549 NSCLC it was 4.94 µM. The GI50 was 2.67 µM in the assay on HCC-2998 colon and 2.46 µM with T-47D breast. The TGI worked out at 1.78 µM in the assay with NCI-H460 lung; 5.76 µM in the assay on UACC-62 melanoma; 13.6 µM with HS 578T breast; 25.1 µM in the assay with EKVX NSCLC; 2.03 µM with DU-145 prostate; 21.4 µM in the assay with A549 NSCLC. Further, the figures for the TGI in the assay with HCC-2998 colon and with T-47D breast were 12.6 µM and 15.5 µM, respectively.

Regarding `N#Cc1c[nH]n2ccnc12`, the TGI in the assay on NCI-H460 lung, with UACC-62 melanoma, with HS 578T breast, with EKVX NSCLC, in the assay on DU-145 prostate and in the assay with A549 NSCLC was > 100 µM throughout. Also, the TGI in the assay with HCC-2998 colon and in the assay with T-47D breast was > 100 µM each time.

In the case of `C(CCc1nnc2c(n1)CCCC2)Cc1nnc2c(n1)CCCC2`, the TGI with NCI-H460 lung, in the assay with UACC-62 melanoma, in the assay with HS 578T breast, with EKVX NSCLC, with DU-145 prostate and in the assay with A549 NSCLC was > 100 µM in each case. Further, the TGI with HCC-2998 colon and in the assay on T-47D breast was > 100 µM in each case.

On to `COc1c2ccccc2c(O)c2c(=O)c(C(=O)O)cn(C)c12`, for which the GI50 with NCI-H460 lung was > 100 µM; with UACC-62 melanoma it was 24.7 µM; in the assay on HS 578T breast it was > 100 µM; in the assay with EKVX NSCLC, 85.2 µM; in the assay with DU-145 prostate it was > 100 µM; in the assay on A549 NSCLC, > 100 µM. Moreover, the GI50 in the assay with HCC-2998 colon and with T-47D breast was > 100 µM throughout. Also, the TGI with NCI-H460 lung, in the assay on UACC-62 melanoma, with HS 578T breast, in the assay on EKVX NSCLC, in the assay on DU-145 prostate and with A549 NSCLC was > 100 µM in each case. Also, the TGI with HCC-2998 colon and in the assay on T-47D breast was > 100 µM throughout.

Turning to `CC(C)(C)OC(=O)NCCCCCCCCn1c2c(c3ccccc3c1=O)C(=O)c1ccccc1-2`, the GI50 is > 50 µM with NCI-H460 lung; 20.3 µM in the assay on UACC-62 melanoma; 7.04 µM in the assay on HS 578T breast; 43.5 µM in the assay on EKVX NSCLC; > 50 µM in the assay with DU-145 prostate; > 50 µM in the assay on A549 NSCLC. For the same compound, the GI50 is > 50 µM in the assay on HCC-2998 colon and > 48 µM in the assay with T-47D breast. Further, the TGI with NCI-H460 lung is > 50 µM; in the assay with UACC-62 melanoma it was > 50 µM; in the assay with HS 578T breast, 27.5 µM; in the assay with EKVX NSCLC, > 50 µM; with DU-145 prostate, > 50 µM; with A549 NSCLC, > 50 µM. The TGI with HCC-2998 colon and in the assay with T-47D breast was > 50 µM in each case.

For the compound `Cn1ccc(=Nc2ccc(NC(=O)c3ccc(N=c4ccn(C)c5ccc([N+](=O)[O-])cc45)cc3)cc2)cc1`, the GI50 is 22.6 µM in the assay with NCI-H460 lung; 17.8 µM in the assay with UACC-62 melanoma; 16.4 µM with HS 578T breast; 55.1 µM in the assay on EKVX NSCLC; 4.43 µM with DU-145 prostate; 7.31 µM with A549 NSCLC. In addition, the GI50 in the assay with HCC-2998 colon is 3.85 µM; in the assay with T-47D breast it was 5.27 µM. The TGI was > 100 µM in the assay with NCI-H460 lung; > 100 µM in the assay on UACC-62 melanoma; 92.6 µM with HS 578T breast; > 100 µM with EKVX NSCLC; > 100 µM with DU-145 prostate; > 100 µM in the assay with A549 NSCLC. In addition, the TGI with HCC-2998 colon and in the assay with T-47D breast was > 100 µM in each case.

For the compound `CC[N+](CC)=c1ccc2nc3c(cc(NCc4ccccc4)c4ccccc43)oc-2c1`, the GI50 is 0.201 µM with NCI-H460 lung; 0.944 µM with UACC-62 melanoma; 0.522 µM in the assay with HS 578T breast; 0.159 µM in the assay on EKVX NSCLC; 0.155 µM in the assay with DU-145 prostate; 0.215 µM in the assay on A549 NSCLC. The GI50 in the assay with HCC-2998 colon was 0.338 µM; in the assay on T-47D breast it was 0.337 µM. In addition, the TGI with NCI-H460 lung is 0.435 µM; in the assay on UACC-62 melanoma it was 2.52 µM; with HS 578T breast it was 3.27 µM; in the assay with EKVX NSCLC, 0.944 µM; in the assay on DU-145 prostate it was 0.291 µM; in the assay on A549 NSCLC, 0.56 µM. The TGI in the assay with HCC-2998 colon amounted to 1.26 µM; in the assay with T-47D breast, 2.3 µM.

For the origin of these results see PubChem BioAssay (NCI).
